# Activity calls are given as the source filed them. No cut-off for these calls is given here.
# Legend:
# Enterococcus faecalis [1] = test: Antimicrobial activity against Enterococcus faecalis clinical isolate A5241515 assessed as formation of extensive fibrils around the cell at 0.12 ug/ml after 3 hrs by transmission electron microscopy; type: functional, organism-based
# Staphylococcus aureus [2] = test: Antimicrobial activity against methicillin-resistant Staphylococcus aureus ATCC 43300 assessed as reduction in cell counts at 1 ug/ml after 10 mins; type: functional
# Enterococcus faecalis [3] = test: Antimicrobial activity against Enterococcus faecalis clinical isolate A5241515 assessed as growth inhibition at 0.12 ug/ml upto 3 hrs; type: functional, organism-based
# Enterococcus faecalis [4] = test: Antimicrobial activity against Enterococcus faecalis clinical isolate A5241515 assessed as growth inhibition at 1 ug/ml upto 6 hrs; type: functional, organism-based
# Staphylococcus aureus [5] = test: Antimicrobial activity against methicillin-resistant Staphylococcus aureus ATCC 43300 assessed as septal deformation at 1 ug/ml after 10 mins by transmission electron microscopy; type: functional, organism-based
# Staphylococcus aureus [6] = test: Antimicrobial activity against methicillin-resistant Staphylococcus aureus ATCC 43300 assessed as aberrant septum formation at 1 ug/ml after 10 mins by transmission electron microscopy; type: functional, organism-based
# Staphylococcus aureus [7] = test: Antimicrobial activity against methicillin-resistant Staphylococcus aureus ATCC 43300 assessed as loss of septal midline at 1 ug/ml after 10 mins by transmission electron microscopy; type: functional, organism-based
# Staphylococcus aureus [8] = test: Antimicrobial activity against methicillin-resistant Staphylococcus aureus ATCC 43300 assessed as formation of membrane inclusions at 1 ug/ml after 10 mins by transmission electron microscopy; type: functional, organism-based
# Enterococcus faecalis [9] = test: Antimicrobial activity against Enterococcus faecalis clinical isolate A5241515 assessed as cell ghost formation at 0.12 ug/ml after 3 hrs by transmission electron microscopy; type: functional, organism-based
# Staphylococcus aureus [10] = test: Antimicrobial activity against methicillin-resistant Staphylococcus aureus ATCC 43300 assessed as cell wall thickening at 1 ug/ml after 10 mins by transmission electron microscopy; type: functional, organism-based
# Enterococcus faecalis [11] = test: Antimicrobial activity against Enterococcus faecalis clinical isolate A5241515 assessed as formation of large membrane inclusions at 1 ug/ml after 6 hrs by transmission electron microscopy; type: functional, organism-based
# Enterococcus faecalis [12] = test: Antimicrobial activity against Enterococcus faecalis clinical isolate A5241515 assessed as septal deformation at 0.12 ug/ml after 3 hrs by transmission electron microscopy; type: functional, organism-based
# Staphylococcus aureus [13] = test: Antimicrobial activity against methicillin-resistant Staphylococcus aureus ATCC 43300 assessed as reduction in cell counts at 16 ug/ml after 3 hrs; type: functional
# Staphylococcus aureus [14] = test: Antimicrobial activity against methicillin-resistant Staphylococcus aureus ATCC 43300 assessed as septal deformation at 16 ug/ml after 3 hrs by transmission electron microscopy; type: functional, organism-based
# Staphylococcus aureus [15] = test: Antimicrobial activity against methicillin-resistant Staphylococcus aureus ATCC 43300 assessed as aberrant septum formation at 16 ug/ml after 3 hrs by transmission electron microscopy; type: functional, organism-based
# Staphylococcus aureus [16] = test: Antimicrobial activity against methicillin-resistant Staphylococcus aureus ATCC 43300 assessed as loss of septal midline at 16 ug/ml after 3 hrs by transmission electron microscopy; type: functional, organism-based
# Staphylococcus aureus [17] = test: Antimicrobial activity against methicillin-resistant Staphylococcus aureus ATCC 43300 assessed as formation of closing iris septal growth pattern at 16 ug/ml after 3 hrs by transmission electron microscopy; type: functional, organism-based
# Staphylococcus aureus [18] = test: Antimicrobial activity against methicillin-resistant Staphylococcus aureus ATCC 43300 assessed as cell wall thickening at 16 ug/ml after 3 hrs by transmission electron microscopy; type: functional, organism-based
Compound,Activity (Enterococcus faecalis [1]),fold change (FC) (Staphylococcus aureus [2]),Activity (Enterococcus faecalis [3]),Activity (Enterococcus faecalis [4]),Activity (Staphylococcus aureus [5]),Activity (Staphylococcus aureus [6]),Activity (Staphylococcus aureus [7]),Activity (Staphylococcus aureus [8]),Activity (Enterococcus faecalis [9]),Activity (Staphylococcus aureus [10]),Activity (Enterococcus faecalis [11]),Activity (Enterococcus faecalis [12]),fold change (FC) (Staphylococcus aureus [13]),Activity (Staphylococcus aureus [14]),Activity (Staphylococcus aureus [15]),Activity (Staphylococcus aureus [16]),Activity (Staphylococcus aureus [17]),Activity (Staphylococcus aureus [18])
CN[C@H](CC(C)C)C(=O)N[C@H]1C(=O)N[C@@H](CC(N)=O)C(=O)N[C@H]2C(=O)N[C@H]3C(=O)N[C@H](C(=O)N[C@H](C(=O)O)c4cc(O)cc(O)c4-c4cc3ccc4O)[C@H](O[C@H]3C[C@](C)(N)[C@@H](O)[C@H](C)O3)c3ccc(c(Cl)c3)Oc3cc2cc(c3O[C@@H]2O[C@H](CO)[C@@H](O)[C@H](O)[C@H]2O[C@H]2C[C@](C)(NCc3ccc(-c4ccc(Cl)cc4)cc3)[C@@H](O)[C@H](C)O2)Oc2ccc(cc2Cl)[C@H]1O [ORITAVANCIN],Active,0.35,Active,Active,Active,Active,Active,Active,Active,Active,Active,Active,–,–,–,–,–,–
CN[C@H](CC(C)C)C(=O)N[C@H]1C(=O)N[C@@H](CC(N)=O)C(=O)N[C@H]2C(=O)N[C@H]3C(=O)N[C@H](C(=O)N[C@H](C(=O)O)c4cc(O)cc(O)c4-c4cc3ccc4O)[C@H](O)c3ccc(c(Cl)c3)Oc3cc2cc(c3O[C@@H]2O[C@H](CO)[C@@H](O)[C@H](O)[C@H]2O[C@H]2C[C@](C)(N)[C@H](O)[C@H](C)O2)Oc2ccc(cc2Cl)[C@H]1O [VANCOMYCIN],–,–,–,–,–,–,–,–,–,–,–,–,0.26,inactive,inactive,inactive,Active,Active
